Experimental findings from ChEMBL document CHEMBL1150257, “Synthesis and cytotoxicity of a salicylihalamide A analogue” (2008) are described below.

Common to all, as to assay type: functional
In one assay the test system is SK-MEL-5. Kind of assay: Cytotoxicity against human SK-MEL-5 cells.
For a further assay, the system named is SR. The assay can be described thus: Cytotoxicity against human SR cells.
For a further assay, the system named is MDA-MB-435. The assay can be described thus: Cytotoxicity against human MDA-MB-435 cells.
The next assay deals with MCF7. The assay can be described thus: Cytotoxicity against human MCF7 cells.

Molecules are shown by their SMILES.

In the case of `CC/C=C\C=C/C(=O)N/C=C/C[C@H]1C[C@@H](O)[C@@H](C)C/C=C/Cc2cccc(O)c2C(=O)O1` [SALICYLIHALAMIDE A], in the assay with SK-MEL-5, halving of growth (GI50) required 0.007 µM.

For `CC/C=C\C=C/C(=O)N/C=C/CC1Cc2cccc(O)c2C(=O)O1` (racemic), the 50% growth inhibitory concentration (GI50) with SR came out at 2 µM; in the assay with SK-MEL-5 it was 27 µM; with MDA-MB-435, 11 µM; with MCF7 it was 49 µM.

By GI50 is commonly meant the concentration at which growth is held to half of that of the control. A higher GI50 goes with less potent growth inhibition.
